Assay results taken from patent US7045515B2, “β-lactam compounds process for reproducing the same and serum cholesterol-lowering agents containing the same” (Kotobuki Pharmaceutical Co., Ltd., priority 2001, dated 2006).

Legend:
[1] = system: hypercholesterolemic hamster; test: Hypocholesterolemic activity in hamsters fed a 0.5%-cholesterol diet; format: in vivo; conditions: Mesocricetus auratus, po, 168 h; 3 mg/kg orally daily, dosage day 7; changed percent vs rise in total cholesterol on high-cholesterol diet, negative = hypocholesterolemic action; read-out: Serum cholesterol (%)
Experimental: [Hypocholesterolemic Agents Using the Hypercholesterolemic Hamster]
Hamsters were derived into groups with 3 animals per group and fed a 0.5%-cholesterol containing CE-2 diet (CLEA Japan Inc.) for 4 or 7 days. The normal dietary group were fed a standard CE-2 during the experiment. Each compound or vehicle (0.2 mL of corn oil) per 100 g body weight was orally administered daily for 4 or 7 days from the day that high-cholesterol diet was started. At 20 hr after the final administration, blood samples were collected from the abdominal aorta of non-fasted animals under anesthesia with diethylether. Serum cholesterol was measured by enzymatic method using cholesterol E-test wako (Wako Pure Chemical Industries). Activity of the test compounds is expressed as percent reduction of the test compound on the basis of comparison with rised total cholesterol treated only with no-treatment-high-cholesterol diet. The test compounds with the optical rotation value in the compounds 1–58 were evaluated as the chiral compounds.

| SMILES | change in vivo at 3 mg/kg [1] | melting point |
| --- | --- | --- |
| O=C1[C@H](CC[C@H](O)c2ccc(F)cc2)[C@@H](c2ccc(C[C@@H]3O[C@H](CO)[C@@H](O)[C@H](O)[C@H]3O)cc2)N1c1ccccc1 [Compound 23, (4S,3R)-3-[(3S)-3-(4-Fluorophenyl)-3-hydroxypropyl]-4-(4-{[(2S,5S,3R,4R,6R)-3,4,5-trihydroxy-6-(hydroxymethyl)perhydro-2H-pyran-2-yl]methyl}phenyl)-1-phenylazetidine-2-one] | -177% | 104 to 106 °C |
| O=C(CC[C@H]1C(=O)N(c2ccc(F)cc2)[C@@H]1c1ccc([C@@H]2O[C@H](CO)[C@@H](O)[C@H](O)[C@H]2O)cc1)c1ccc(F)cc1 [Compound 34] |  | 83 to 85 °C |
| O=C1[C@H](CCOc2ccc(F)cc2)[C@@H](c2ccc(CC3O[C@H](CO)[C@@H](O)[C@H](O)[C@H]3O)cc2)N1c1ccc(F)cc1 (relative stereo) [Compound 12, (4S*,3R*)-4-(4-{[(5S,2R,3R,4R,6R)-3,4,5-Trihydroxy-6-(hydroxymethyl)perhydro-2H-pyran-2-yl]methyl}phenyl)-1-(4-fluorophenyl)-3-[2-(4-fluorophenoxy)ethyl]azetidine-2-one] |  | 65 to 67 °C |
| O=C(O)c1ccc(N2C(=O)[C@H](CCC(=O)c3ccc(F)cc3)[C@H]2c2ccc(C[C@@H]3O[C@H](CO)[C@@H](O)[C@H](O)[C@H]3O)cc2)cc1 [Compound 30, 4-[(4S,3R)-4-(4-{[(2S,5S,3R,4R,6R)-3,4,5-Trihydroxy-6-(hydroxymethyl)perhydro-2H-pyran-2-yl]methyl}phenyl)-3-[3-(4-fluorophenyl)-3-oxopropyl]-2-oxoazetidinyl]benzoic acid] |  | 102 to 104 °C |
| O=C1[C@H](CC[C@H](O)c2ccc(F)cc2)[C@@H](c2ccc(C[C@@H]3O[C@H](CO)[C@@H](O)[C@H](O)[C@H]3O)cc2)N1c1ccc(F)cc1 [Compound 22, (4S,3R)-3-[(3S)-3-(4-Fluorophenyl)-3-hydroxypropyl]-4-(4-{[(2S,5S,3R,4R,6R)-3,4,5-trihydroxy-6-(hydroxymethyl)perhydro-2H-pyran-2-yl]methyl}phenyl)-1-(4-fluorophenyl)azetidine-2-one] |  | 115 to 117 °C |
| COc1ccc(N2C(=O)[C@H](CCCc3ccc(F)cc3)[C@H]2c2ccc(CC3O[C@H](CO)[C@@H](O)[C@H](O)[C@H]3O)cc2)cc1 (relative stereo) [Compound 5, (4S*,3R*)-4-(4-{[(5S,2R,3R,4R,6R)-3,4,5-Trihydroxy-6-(hydroxymethyl)perhydro-2H-pyran-2-yl]methyl}phenyl)-1-(4-methoxyphenyl)-3-[3-(4-fluorophenyl)propyl]azetidine-2-one] |  | 73 to 75 °C |
| O=C1[C@H](CCCc2ccc(F)cc2)[C@@H](c2ccc(C[C@@H]3O[C@H](CO)[C@@H](O)[C@H](O)[C@H]3O)cc2)N1c1ccc(Cl)cc1 (relative stereo) [Compound 4, (4S*,3R*)-4-(4-{[(2S,5S,3R,4R,6R)-3,4,5-Trihydroxy-6-(hydroxymethyl)perhydro-2H-pyran-2-yl]methyl}phenyl)-1-(4-chlorophenyl)-3-[3-(4-fluorophenyl)propyl]azetidine-2-one] |  | 76 to 78 °C |
| O=C1[C@H](CCCc2ccccc2)[C@@H](c2ccc(C[C@@H]3O[C@H](CO)[C@@H](O)[C@H](O)[C@H]3O)cc2)N1c1ccccc1 [Compound 44, 3-(3-Phenylpropyl)(4S,3R)-4-(4-{[(5S,3R,4R,6R)-3,4,5-trihydroxy-6-(hydroxymethyl)perhydro-2H-pyran-2-yl]methyl}phenyl)-1-phenylazetidine-2-one] |  | 84 to 86 °C |
| O=C(CC[C@H]1C(=O)N(c2ccccc2)[C@@H]1c1ccc(C[C@@H]2O[C@H](CO)[C@@H](O)[C@H](O)[C@H]2O)cc1)c1ccc(F)cc1 [Compound 27, (4S,3R)-4-(4-{[(2S,5S,3R,4R,6R)-3,4,5-Trihydroxy-6-(hydroxymethyl)perhydro-2H-pyran-2-yl]methyl}phenyl)-1-phenyl-3-[3-(4-fluorophenyl)-3-oxopropyl]azetidine-2-one] |  | 104 to 106 °C |
| CC(C)(Oc1ccc(N2C(=O)[C@H](CCCc3ccc(F)cc3)[C@H]2c2ccc(C[C@@H]3O[C@H](CO)[C@@H](O)[C@H](O)[C@H]3O)cc2)cc1)C(=O)O (relative stereo) [Compound 19, 2-{4-[(4S*,3R*)-4-{[(5S,2R,3R,4R,6R)-3,4,5-Trihydroxy-6-(hydroxymethyl)perhydro-2H-pyran-2-yl]methyl}phenyl-3-[3-(4-fluorophenyl)propyl]-2-oxoazetidinyl]phenoxy}-2-methylpropionic acid] |  | 170 to 172 °C |
| O=C(O)c1ccc(N2C(=O)[C@H](CCCc3ccc(F)cc3)[C@H]2c2ccc(C[C@@H]3O[C@H](CO)[C@@H](O)[C@H](O)[C@H]3O)cc2)cc1 [Compound 31, 4-[(4S,3R)-4-(4-{[(2S,5S,3R,4R,6R)-3,4,5-Trihydroxy-6-(hydroxymethyl)perhydro-2H-pyran-2-yl]methyl}phenyl)-3-[3-(4-fluorophenyl)propyl]-2-oxoazetidinyl]benzoic acid] |  | 97 to 99 °C |
| O=C1[C@H](CC[C@H](O)c2ccccc2)[C@@H](c2ccc(C[C@@H]3O[C@H](CO)[C@@H](O)[C@H](O)[C@H]3O)cc2)N1c1ccccc1 [Compound 41, 3-((3S)-3-Hydroxy-3-phenylpropyl)(4S,3R)-4-(4-{[(2S,5S,3R,4R,6R)-3,4,5-trihydroxy-6-(hydroxymethyl)perhydro-2H-pyran-2-yl]methyl}phenyl)-1-phenylazetidine-2-one] |  | 110 to 112 °C |
| O=C1[C@H](CCCc2ccc(F)cc2)[C@@H](c2ccc(CC3O[C@H](CO)[C@@H](O)[C@H](O)[C@H]3O)cc2)N1c1ccc(F)cc1 (stereo in doubt) [Compound 25, (4S,3R)-4-(4-{[(5S,2R,3R,4R,6R)-3,4,5-Trihydroxy-6-(hydroxymethyl)perhydro-2H-pyran-2-yl)methyl}phenyl)-1-(4-fluorophenyl)-3-[3-(4-fluorophenyl)propyl]azetidine-2-one] |  | 67 to 69 °C |
| O=C1[C@H](CCCc2ccc(F)cc2)[C@@H](c2ccc(CC3O[C@H](CO)[C@@H](O)[C@H](O)[C@H]3O)cc2)N1c1ccccc1 (relative stereo) [Compound 9, (4S*,3R*)-4-(4-{[(5S,2R,3R,4R,6R)-3,4,5-Trihydroxy-6-(hydroxymethyl)perhydro-2H-pyran-2-yl]methyl}phenyl)-1-phenyl-3-[3-(4-fluorophenyl)propyl]azetidine-2-one] |  | 84 to 86 °C |
| O=C1[C@H](CCCc2ccccc2)[C@@H](c2ccc(CC3O[C@H](CO)[C@@H](O)[C@H](O)[C@H]3O)cc2)N1c1ccc(F)cc1 (relative stereo) [Compound 11, (4S*,3R*)-4-(4-{[(5S,2R,3R,4R,6R)-3,4,5-Trihydroxy-6-(hydroxymethyl)perhydro-2H-pyran-2-yl]methyl}phenyl)-1-(4-fluorophenyl)-3-[3-(phenyl)propyl]azetidine-2-one] |  | 74 to 75 °C |
| CCOC(=O)C(C)(C)Oc1ccc(N2C(=O)[C@H](CCCc3ccc(C)cc3)[C@H]2c2ccc(C[C@@H]3O[C@H](CO)[C@@H](O)[C@H](O)[C@H]3O)cc2)cc1 (relative stereo) [Compound 20, 2-{4-[(4S*,3R*)-4-{[(5S,2R,3R,4R,6R)-3,4,5-Trihydroxy-6-(hydroxymethyl)perhydro-2H-pyran-2-yl]methyl}phenyl-3-[3-(4-methylphenyl)propyl]-2-oxoazetidinyl]phenoxy}-2-methylpropionic acid ethyl ester] |  | 76 to 78 °C |
| O=C(O)[C@H]1O[C@@H](CCc2ccc([C@@H]3[C@@H](CC[C@H](O)c4ccc(F)cc4)C(=O)N3c3ccccc3)cc2)[C@H](O)[C@@H](O)[C@@H]1O [Compound 58] |  | 110 to 112 °C |
| Cc1ccc(N2C(=O)[C@H](CCCc3ccc(F)cc3)[C@H]2c2ccc(CC3O[C@H](CO)[C@@H](O)[C@H](O)[C@H]3O)cc2)cc1 (relative stereo) [Compound 7, (4S*,3R*)-4-(4-{[(5S,2R,3R,4R,6R)-3,4,5-Trihydroxy-6-(hydroxymethyl)perhydro-2H-pyran-2-yl]methyl}phenyl)-1-(4-methylphenyl)-3-[3-(4-fluorophenyl)propyl]azetidine-2-one] |  | 80 to 82 °C |
| O=C(CC[C@H]1C(=O)N(c2ccc(F)cc2)[C@@H]1c1ccc(C[C@@H]2O[C@H](CO)[C@@H](O)[C@H](O)[C@H]2O)cc1)c1ccc(F)cc1 [Compound 26, (4S,3R)-4-(4-{[(2S,5S,3R,4R,6R)-3,4,5-Trihydroxy-6-(hydroxymethyl)perhydro-2H-pyran-2-yl]methyl}phenyl)-1-(4-fluorophenyl)-3-[3-(4-fluorophenyl)-3-oxopropyl]azetidine-2-one] |  | 78 to 80 °C |
| O=C1[C@H](CCCc2ccc(F)cc2)[C@@H](c2ccc(OCC3O[C@H](CO)[C@@H](O)[C@H](O)[C@H]3O)cc2)N1Cc1ccccc1 (relative stereo) [Compound 16, (4S*,3R*)-4-(4-{[(4S,5S,2R,3R,6R)-3,4,5-Trihydroxy-6-(hydroxymethyl)perhydro-2H-pyran-2-yl]methoxy}phenyl)-1-phenylmethyl-3-[3-(4-fluorophenyl)propyl]azetidine-2-one] |  | 73 to 75 °C |
| O=C1[C@H](CC[C@H](O)c2ccc(F)cc2)[C@@H](c2ccc([C@@H]3O[C@H](CO)[C@@H](O)[C@H](O)[C@H]3O)cc2)N1c1ccc(F)cc1 [Compound 35] |  | 81 to 83 °C |
| O=C1[C@H](CC[C@H](O)c2ccc(F)cc2)[C@@H](c2ccc(/C=C/CCC[C@@H]3O[C@H](CO)[C@@H](O)[C@H](O)[C@H]3O)cc2)N1c1ccc(F)cc1 [Compound 54] |  | 69 to 71 °C |
